Consider 24 compounds from US20180265934A1, “COINCIDENCE REPORTER GENE SYSTEM” (The United States of America, as represented by the …, priority 2013, published 2018).

In the experiment the test system is cAMP-response element (CRE) / CREB pathway. Put plainly: LOPAC1280 qHTS, 4×CRE-driven FLuc-P2A-RLuc coincidence reporter (pCI-6.24) in GripTite 293 MSR cells. In kind it is cell-based. How it is done: This protocol measures bioluminescence derived from both FLuc and RLuc expression from a single assay. […] Sixteen hours after transfection, cells were trypsinized and then dispensed at 2,000 cells/20 μL/well in 384-well tissue culture treated white/solid bottom plates (Greiner Bio-One North America, Monroe, N.C.). The assay plates were incubated at 37° C. for 10 hours before adding the DUAL-GLO detection reagent (Promega). Luminescence from luciferase activity was detected by using a VIEWLUX plate reader (PerkinElmer, Waltham, Mass.).
Sixteen hours after transfection, cells were trypsinized and then dispensed at 500 cells/4 μL/well in 1,536-well tissue culture treated white/solid bottom plates (Greiner Bio-One North America) using a multidrop combi dispenser (Thermo Fisher Scientific). […] The assay plates were incubated at 37° C. for 10 hours before adding the DUAL-GLO detection reagent (3.5 μL+3.5 μL for each well) (Promega). Luminescence from luciferase activity was detected by using VIEWLUX (PerkinElmer). Each experimental plate contained forskolin as a positive control and DMSO as a negative control. Percentage activity was defined as the percentage signal relative to forskolin (100%) and DMSO (0%).

[1] abbreviates: Table 5, coincident activators; FLuc readout, 10 h, ~4 nM to 57 μM; read-out: FLuc EC50.
The mark [2] stands for this setting: Table 5, coincident activators; RLuc readout, 10 h, ~4 nM to 57 μM; read-out: RLuc EC50.
Setting [3] is: GripTite 293 MSR, 10 h, Table 5, coincident activators; FLuc readout, 10 h, ~4 nM to 57 μM; read-out: FLuc EC50.
The mark [4] stands for this setting: GripTite 293 MSR, 10 h, Table 5, coincident activators; RLuc readout, 10 h, ~4 nM to 57 μM; read-out: RLuc EC50.
The mark [5] stands for this setting: Table 6, compounds activating RLuc only; RLuc readout, 10 h; read-out: RLuc EC50.
The mark [6] stands for this setting: GripTite 293 MSR; Table 6, compounds activating RLuc only; RLuc readout, 10 h; read-out: RLuc EC50.
Where [7] appears, read: GripTite 293 MSR, 10 h, Table 6, compounds activating RLuc only; RLuc readout, 10 h; read-out: RLuc EC50.

Counter-ions that a name gives are not always drawn. Like-named read-outs stand apart in the source and are kept apart here.

Usually EC50 stands for the concentration that produces a half-maximal response. `NC(=S)c1ccc[n+]([C@@H]2OC(COP(=O)([O-])OP(=O)(O)OC[C@H]3O[C@@H](n4cnc5c(N)ncnc54)[C@H](OP(=O)(O)O)[C@@H]3O)C(O)C2O)c1` (stereo in doubt) [compound 15, Thio-NADP sodium]: the “Ratio F/R” value (FLuc EC50 / RLuc EC50, Table 5) was found to be 0.95. The concentration for a half-maximal effect (EC50) under setting [1] was 2.39 µM and the EC50 under setting [2] stood at 2.51 µM.

On to `Cc1ccccc1CNc1ncnc2c1ncn2[C@@H]1O[C@H](CO)[C@@H](O)[C@H]1O` [compound 3, Metrifudil], for which, under “FLuc EC50 / RLuc EC50, Table 5”, the “Ratio F/R” value is on record as 2.20. Further, the EC50 worked out at 1.34 µM under setting [3] and 0.61 µM under setting [4].

In the case of `Nc1nc(Nc2ccccc2)nc2c1ncn2[C@@H]1O[C@H](CO)[C@@H](O)[C@H]1O` [compound 4, 2-Phenylaminoadenosine], the “Ratio F/R” value (FLuc EC50 / RLuc EC50, Table 5) is 0.95. Further, the EC50 under setting [3] is 10.7 µM and the 50% effective concentration (EC50) under setting [4] was 11.2 µM.

Take `OC[C@H]1O[C@@H](n2cnc3c(NC4CCCCC4)ncnc32)[C@H](O)[C@@H]1O` [compound 5, N6-Cyclohexyladenosine]: the “Ratio F/R” value (FLuc EC50 / RLuc EC50, Table 5) worked out at 0.67. Also, the EC50 worked out at 16.9 µM under setting [3] and 25.1 µM under setting [4].

For the compound `OC[C@H]1O[C@@H](n2cnc3c(NC4CCCC4)ncnc32)[C@H](O)[C@@H]1O` [compound 6, N6-Cyclopentyladenosine], the “Ratio F/R” value (FLuc EC50 / RLuc EC50, Table 5) is on record as 0.75. The EC50 reads like this: under setting [3], 0.95 µM; under setting [4], 1.26 µM.

For the compound `OC[C@H]1O[C@H](n2cnc3c(N[C@H]4CCC[C@@H]4O)ncnc32)[C@H](O)[C@@H]1O` [compound 7, GR 79236X], the “Ratio F/R” value (FLuc EC50 / RLuc EC50, Table 5) was found to be 0.85. Moreover, the 50% effective concentration (EC50) by setting is: under setting [1], 2.69 µM; under setting [2], 3.16 µM.

Take `Nc1ccc(CCNc2ncnc3c2ncn3[C@@H]2O[C@H](CO)[C@@H](O)[C@H]2O)cc1` [compound 8, N6-2-(4-Aminophenyl)ethyladenosine]: for the setting “FLuc EC50 / RLuc EC50, Table 5”, the “Ratio F/R” value is 1.56. Besides, the EC50 under setting [3] was 1.45 µM and the EC50 under setting [4] is 0.93 µM.

Take `CNC(=O)[C@H]1O[C@@H](n2cnc3c(NCc4ccc(N)cc4)ncnc32)[C@H](O)[C@@H]1O` [compound 9, AB-MECA]: for the setting “FLuc EC50 / RLuc EC50, Table 5”, the “Ratio F/R” value was 3.51. Also, the EC50 runs as follows: under setting [1], 1.51 µM; under setting [2], 0.43 µM.

On to `Nc1nc(Cl)nc2c1ncn2[C@@H]1O[C@H](CO)[C@@H](O)[C@H]1O` [compound 11, 2-Chloroadenosine], for which the “Ratio F/R” value (FLuc EC50 / RLuc EC50, Table 5) turned out to be 1.13. For the same compound, the EC50 is, setting by setting: under setting [3], 0.43 µM; under setting [4], 0.38 µM.

For the compound `CNc1ncnc2c1ncn2[C@@H]1O[C@H](CO)[C@@H](O)[C@H]1O` [compound 12, N6-Methyladenosine], under “FLuc EC50 / RLuc EC50, Table 5”, the “Ratio F/R” value is listed as 1.26. The EC50 was 16.7 µM under setting [3] and 13.3 µM under setting [4].

As to `CCNC(=O)[C@H]1O[C@@H](n2cnc3c(N)ncnc32)[C@H](O)[C@@H]1O` [compound 13, 5′-N-Ethylcarboxamidoadenosine], the “Ratio F/R” value (FLuc EC50 / RLuc EC50, Table 5) came out at 0.56. For the same compound, the EC50 was determined as 0.3 µM under setting [1] and 0.54 µM under setting [2].

For the compound `CCCCC#Cc1nc(NC)c2ncn([C@@H]3O[C@H](CO)[C@@H](O)[C@H]3O)c2n1` [compound 14, HEMADO], the “Ratio F/R” value (FLuc EC50 / RLuc EC50, Table 5) was 1.78. Moreover, the concentration for a half-maximal effect (EC50) runs as follows: under setting [1], 2.69 µM; under setting [2], 1.51 µM.

With `NC(=O)C1=CN([C@@H]2O[C@H](COP(=O)(O)OP(=O)(O)OC[C@H]3O[C@@H](n4cnc5c(N)ncnc54)[C@H](OP(=O)(O)O)[C@@H]3O)[C@@H](O)[C@H]2O)C=CC1` [compound 16, NADPH tetrasodium], the “Ratio F/R” value (FLuc EC50 / RLuc EC50, Table 5) was determined as 0.81. For the same compound, the EC50 is 18.2 µM under setting [1] and 22.4 µM under setting [2].

As to `Nc1nc(Cl)nc2c1ncn2[C@@H]1O[C@H](COP(=O)([O-])OP(=O)([O-])OP(=O)([O-])[O-])[C@@H](O)[C@H]1O.[Na+].[Na+].[Na+].[Na+]` [compound 17, 2-Chloroadenosine triphosphate tetrasodium], the “Ratio F/R” value (FLuc EC50 / RLuc EC50, Table 5) stood at 2.96. The EC50 turned out to be 11.5 µM under setting [3] and 3.89 µM under setting [4].

In the case of `CNc1cc(NS(=O)(=O)c2ccc(N)cc2)nc(NC)n1` [compound 20, Ro 04-6790 hydrochloride], the EC50 under setting [5] was determined as 2.05 µM.

In the case of `C[C@H](Cc1ccccc1)Nc1ncnc2c1ncn2[C@@H]1O[C@H](CO)[C@@H](O)[C@H]1O` [cpd 1, R(−)-N6-(2-Phenylisopropyl)adenosine], the “Ratio F/R” value (FLuc EC50 / RLuc EC50, Table 5) is 3.32. In addition, the EC50 is, setting by setting: under setting [1], 9.37 µM; under setting [2], 2.82 µM.

As for `OC[C@H]1O[C@@H](n2cnc3c(Nc4ccccc4)ncnc32)[C@H](O)[C@@H]1O` [cpd 2, N6-Phenyladenosine], the “Ratio F/R” value (FLuc EC50 / RLuc EC50, Table 5) amounted to 0.87. For the same compound, the EC50 stood at 12.7 µM under setting [3] and 14.6 µM under setting [4].

Take `C#CCOC(=O)C1=CCCN(C)C1` [cpd 18, Arecaidine propargyl ester hydrobromide (APE)]: under “FLuc EC50 / RLuc EC50, Table 5”, the “Ratio F/R” value is reported as 1.16. In addition, the EC50 under setting [1] amounted to 3.59 µM and the EC50 under setting [2] came to 3.09 µM. Further, the “FLuc and RLuc signal outputs in the screen” value (qHTS, both reporters) is “coincident FLuc and RLuc signal outputs”.

On to `NC(=O)COc1c(F)cc(SCCNS(=O)(=O)c2ccccc2)cc1F` [cpd 21, 2,6-Difluoro-4-[2-(phenylsulfonylamino)ethylthio]phenoxyacetamide], for which the EC50 under setting [6] came out at 21.4 µM.

For the compound `NCCNS(=O)(=O)c1cccc2c(Cl)cccc12` [cpd 22, A3 hydrochloride], the half-maximal effective concentration (EC50) under setting [5] was found to be 15.8 µM.

With `COc1ccc(Cl)cc1C(=O)NCCc1ccc(S(=O)(=O)NC(=O)NC2CCCCC2)cc1` [cpd 23, Glybenclamide], under setting [7], the concentration giving a half-maximal response (EC50) turned out to be 30.4 µM.

As to `CC1=NS(=O)(=O)c2cc(Cl)ccc2N1` [cpd 24, Diazoxide], the EC50 under setting [7] amounted to 9.15 µM.

Turning to `N#CC(=C(/N)Sc1ccccc1N)/C(C#N)=C(\N)Sc1ccccc1N` [cpd 25, U0126], under setting [6], the EC50 turned out to be 8.49 µM.

Turning to `O=C(c1ccc(OCCN2CCCCC2)cc1)c1c(-c2ccc(O)cc2)sc2cc(O)ccc12` [cpd 26, Raloxifene hydrochloride], under setting [7], the EC50 amounted to 12 µM.
